# Reference: paper PMC5225203, “Multiparameter toxicity assessment of novel DOPO-derived organophosphorus flame retardants” (Archives of Toxicology, 2016)
# Tests used:
# [1] = test system: 3D epidermal in vitro model generated from primary human keratinocytes; experiment: 3D epidermal in vitro model; assay type: cell-based; settings: positive control, 5 %, 15 min
# Method: Human primary keratinocytes (PR3D-HPEK-50, CELLnTEC, Switzerland) were grown in flasks in proliferation medium (CNT-PR, CELLnTEC) until subconfluency was reached, after which the cells were seeded into transwell inserts containing polycarbonate membranes with a pore size of 0.4 µm at a density of 3.3 × 10^5 cells/cm^2 and grown for 3 days in CNT-PR until confluency was reached. Differentiation was initiated by the addition of 3D barrier medium (CNT-PR-3D, CELLnTEC) for 18 h to allow development of cell-to-cell adhesion structures. 3D growth and differentiation were induced by complete removal of medium from the upper transwell compartment and replacement of the CNT-PR-3D differentiation medium in the lower compartment. Cells were allowed to differentiate for 11 days with 3 medium changes per week in the lower compartment and direct cell-to-air contact in the top compartment. Flame retardants were suspended at a concentration of 200 mM in PBS containing 5 % DMSO, after which 100 µL of each test compound was applied on top of the epithelial barrier model. […] Cell viability of the epidermal models was assessed by measuring the reduction of resazurin to resorufin (PrestoBlue® Assay). Cell viability values (fluorescence signals) were normalized to the epidermal model thickness. […] Samples were mounted with DPX mounting medium (Sigma-Aldrich) and analyzed by microscopy (Olympus IX 81).
# [2] = test system: ARE-dependent luciferase expression in KeratinoSens cells; experiment: KeratinoSens skin sensitization assay; assay type: cell-based; settings: positive control
# Method: Generation of the stable KeratinoSens™ cell line was previously described in detail (Emter et al. [2010]). KeratinoSens™ cells were maintained in DMEM containing glutamax (Gibco/Invitrogen), 9 % FCS, and 0.5 mg/mL G418. For the experiments, KeratinoSens™ cells were seeded onto 96-well plates at a density of 10,000 cells per well in 125 µL medium without G418. After 24 h, the medium was replaced with 200 µL DMEM containing 1 % FCS and the test compounds. After a 2-day incubation period at 37 °C in an atmosphere containing 5 % CO2, the cells were washed once with PBS and a resazurin reduction assay (PrestoBlue®) was carried out in order to compare the viability of the differently treated groups. Fluorescence intensity was measured at 550 nmex and 590 nmem. After another washing step with PBS, cell lysis was performed using 20 µL/well passive lysis buffer (Promega) for 20 min at room temperature. Luciferase activity was measured by applying 50 µL luciferase substrate automatically to each well and detecting the resulting luminescence. Compounds were considered as skin sensitizers when a statistically significant induction of luciferase activity above a defined threshold of ≥1.5 in the absence of impaired cell viability was observed (Emter et al. [2010]; Natsch et al. [2011]).
# [3] = test system: differentiated LUHMES cells; assay type: cell-based, human; settings: positive control
# Method: Suppl. Fig. 10. Migration of mitochondria in neurites. Mitochondrial migration was detected in fully differentiated (day 6 of differentiation, DoD6) mixed LUHMES cultures consisting of 3% eGFP/mito-tRFP-overexpressing LUHMES in 97% unlabeled LUHMES in order to allow tracking of mitochondria in single neurites in an environment of normal LUHMES cell density (Schildknecht et al. 2013, ALTEX 30(4):427-444). Single cell time lapse imaging was performed for a period of 90 s in intervals of 3 s with a Zeiss LSM 780 inverted fluorescence microscope YOKOGAWA CSU-XI spinning disk system using an EVOLVE camera (Carl Zeiss Group, Oberkochen, Germany) equipped with a 5% CO2 /37°C controlled chamber and a 40 x 1.3 NA oil objective. For image analysis, kymographs (graphical representation of spatial position over time) based on the data obtained from single cell time lapse experiments were created using ImageJ Software (NIH, Bethesda, USA). The neurite was manually defined by the segmented line tool. To calculate mitochondrial velocity, diagonal lines were drawn for each moving mitochondrium in the kymograph and analysed by calculating the slope with the macro-plugin Kymo Line ROI, generated by Felix Schöneberger, Bioimaging Center (BIC), University of Konstanz, Germany.
# (1 picture or pasted object on this page, not shown here)
smiles,measurement,setting,value
"CCCCCCCCCCCCOS(=O)(=O)[O-].[Na+] [SDS, sodium dodecyl sulfate]",influence on the architecture of the epidermis,[1],complete disintegration of the stratum corneum and substantial cell death in the stratum spinosum
"CC(=O)C=Cc1ccccc1 [benzylidene acetone, reference compound]",concentration at which luciferase increase is associated with cell death,[2],> 10 µM
"C[n+]1ccc(-c2ccccc2)cc1 [MPP^+, reference compound]",velocity of mitochondrial migration in neurites,[3],significant decline
